What follows are compounds tested against T1, human S1P1 receptor (Homo sapiens, UniProt P21453) (assay: GTP γ35S binding assay for S1P1 activity). Conditions: membranes, 30 min at 25° C., read-out: S1P1 EC50 (Activity potency: S1P1 receptor from GTP γ35S).
T1 construct: expressed in transfected cells; membranes used
T1 sequence (P21453 whole entry): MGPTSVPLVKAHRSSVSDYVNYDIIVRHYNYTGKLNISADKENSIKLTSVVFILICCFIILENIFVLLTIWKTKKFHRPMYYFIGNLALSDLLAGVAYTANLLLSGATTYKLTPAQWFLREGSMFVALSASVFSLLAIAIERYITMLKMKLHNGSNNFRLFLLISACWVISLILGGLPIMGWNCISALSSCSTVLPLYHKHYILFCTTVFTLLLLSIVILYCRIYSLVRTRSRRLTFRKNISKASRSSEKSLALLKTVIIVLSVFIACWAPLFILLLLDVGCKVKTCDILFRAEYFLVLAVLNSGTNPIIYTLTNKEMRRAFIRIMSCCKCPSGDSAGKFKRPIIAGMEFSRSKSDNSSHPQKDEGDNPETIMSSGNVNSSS
Assay type: biochemical
Procedure: Compounds were tested for S1P1 activity using the GTP γ^35S binding assay. These compounds may be assessed for their ability to activate or block activation of the human S1P1 receptor in cells stably expressing the S1P1 receptor.
GTP γ^35S binding was measured in the medium containing (mM) HEPES 25, pH 7.4, MgCl2 10, NaCl 100, dithitothreitol 0.5, digitonin 0.003%, 0.2 nM GTP γ^35S, and 5 μg membrane protein in a volume of 150 μl. Test compounds were included in the concentration range from 0.08 to 5,000 nM unless indicated otherwise. Membranes were incubated with 100 μM 5′-adenylylimmidodiphosphate for 30 min, and subsequently with 10 μM GDP for 10 min on ice. Drug solutions and membrane were mixed, and then reactions were initiated by adding GTP γ^35S and continued for 30 min at 25° C. Reaction mixtures were filtered over Whatman GF/B filters under vacuum, and washed three times with 3 mL of ice-cold buffer (HEPES 25, pH7.4, MgCl2 10 and NaCl 100). Filters were dried and mixed with scintillant, and counted for ^35S activity using a β-counter. Agonist-induced GTP γ^35S binding was obtained by subtracting that in the absence of agonist. Binding data were analyzed using a non-linear regression method. In case of antagonist assay, the reaction mixture contained 10 nM S1P in the presence of test antagonist at concentrations ranging from 0.08 to 5000 nM.
Work on `O=P(O)(O)CCCNCc1ccc(OCCCCCc2ccccc2)c(-c2cccs2)c1` [Compound 6, [3-({4-[(5-phenylpentyl)oxy]-3-(2-thienyl)benzyl}amino)propyl]phosphonic acid] yielded an EC50 of 1.3 nM. For `O=P(O)(O)CCCNCc1ccc(OCCCCCc2cccc(Cl)c2)c(-c2ccco2)c1` [Compound 39, (3-{[4-{[5-(3-chlorophenyl)pentyl]oxy}-3-(2-furyl)benzyl]amino}propyl)phosphonic acid], the EC50 was 32.8 nM. With `Cc1cccc(CCCCCOc2ccc(CNCCCP(=O)(O)O)cc2-c2ccco2)c1` [Compound 40, (3-{[3-(2-furyl)-4-{[5-(3-methylphenyl)pentyl]oxy}benzyl]amino}propyl)phosphonic acid] the EC50 was 34.9 nM. For `O=P(O)(O)C(F)(F)CCNCc1ccc(OCCCCCc2ccccc2)c(-c2ccc(F)o2)c1` [Compound 41, [1,1-difluoro-3-({3-(5-fluoro-2-furyl)-4-[(5-phenylpentyl)oxy]benzyl}amino)propyl]phosphonic acid], the EC50 was 53.6 nM. `CC(NCCCP(=O)(O)O)c1ccc(OCCCCCc2ccccc2)c(-c2cccs2)c1` (stereo not shown) [Compound 42, {3-[(1-{4-[(5-phenylpentyl)oxy]-3-(2-thienyl)phenyl}ethyl)amino]propyl}phosphonic acid] gave an EC50 of 16.4 nM. In the case of `O=P(O)(O)CCCNCc1ccc(OCCCCCc2ccccc2)c(-n2cccn2)c1` [Compound 43, [3-({4-[(5-phenylpentyl)oxy]-3-(1H-pyrazol-1-yl)benzyl}amino)propyl]phosphonic acid], the EC50 is reported as 8.5 nM. For `O=P(O)(O)CCCNCc1ccc(OCCCCCc2ccccc2)c(-n2cccc2)c1` [Compound 44, [3-({4-[(5-phenylpentyl)oxy]-3-(1H-pyrrol-1-yl)benzyl}amino)propyl]phosphonic acid], the EC50 was 3.4 nM. For `[2H]C([2H])(CCCCc1ccccc1)Oc1ccc(CNCCCP(=O)(O)O)cc1-c1ccco1` [Compound 45, [3-({3-(2-furyl)-4-[(5-phenylpentyl)oxy]benzyl}amino)propyl]phosphonic acid-d_2—], the EC50 was 1.7 nM. Compound `O=P(O)(O)CCCNCc1ccc(NCCCCCc2ccccc2)c(-c2ccco2)c1` [Compound 46, [3-({3-(2-furyl)-4-[(5-phenylpentyl)amino]benzyl}amino)propyl]phosphonic acid] has an EC50 of 1.5 nM. In the case of `O=P(O)(O)CCCNCc1ccc(NCCCCCc2ccccc2)c(-c2ncco2)c1` [Compound 47, [3-({3-(1,3-oxazol-2-yl)-4-[(5-phenylpentyl)amino]benzyl}amino)propyl]phosphonic acid], the EC50 is reported as 15.6 nM. `O=P(O)(O)CCCNCc1ccc(NCCCCCc2ccccc2)c(-c2nccs2)c1` [Compound 48, [3-({4-[(5-phenylpentyl)amino]-3-(1,3-thiazol-2-yl)benzyl}amino)propyl]phosphonic acid] showed an EC50 of 17.4 nM. For `O=P(O)(O)CCCNCc1ccc(OCCCCCc2ccccc2F)c(-c2ccco2)c1` [Compound 49, (3-{[4-{[5-(2-fluorophenyl)pentyl]oxy}-3-(2-furyl)benzyl]amino}propyl)phosphonic acid], the EC50 was 1 nM. Work on `O=P(O)(O)CCCNCc1ccc(OCCCCCc2ccccc2F)c(-c2ccoc2)c1` [Compound 50, (3-{[4-{[5-(2-fluorophenyl)pentyl]oxy}-3-(3-furyl)benzyl]amino}propyl)phosphonic acid] yielded an EC50 of under 25 nM. `O=P(O)(O)CCCNCc1cc(-c2ccco2)c(OCCCCCc2ccccc2)cc1F` [Compound 51, [3-({2-fluoro-5-(2-furyl)-4-[(5-phenylpentyl)oxy]benzyl}amino)propyl]phosphonic acid] showed an EC50 of 1 nM.

These compounds were tested on blood lymphocytes (assay: Lymphopenia Assay in Mice (blood lymphocyte depletion)). Conditions: 10 mg/kg in mice (24, 48, 72 Hours), FIG. 1.
Assay type: in vivo, female C57BL6 mice
Procedure: A lymphopenia assay in mice; as previously described, was employed to measure the in vivo blood lymphocyte depletion after dosing with the test compound: [3-({4-[(5-phenylpentyl)oxy]-3-(2-thienyl)benzyl}amino)propyl]phosphonic acid Compound 6. This S1P1 modulator, [3-({4-[(5-phenylpentyl)oxy]-3-(2-thienyl)benzyl}amino)propyl]phosphonic acid Compound 6 is useful for S1P-related diseases and exemplified by the lymphopenia in vivo response.
Test drugs, were prepared in a solution containing 3% (w/v) 2-hydroxy propyl β-cyclodextrin (HPBCD) and 1% DMSO to a final concentration of 1 mg/ml, and subcutaneously injected to female C57BL6 mice (CHARLES RIVERS) weighing 20-25 g at the dose of 10 mg/Kg. Blood samples were obtained by puncturing the submandibular skin with a Goldenrod animal lancet at different time intervals such as: 24, 48, 72 (and 96 h) post drug application. Blood was collected into microvettes (SARSTEDT) containing EDTA tripotassium salt. Lymphocytes in blood samples were counted using a HEMAVET Multispecies Hematology System, HEMAVET HV950FS (Drew Scientific Inc.). (Hale, J. et al Bioorg. & Med. Chem. Lett. 14 (2004) 3351
For `O=P(O)(O)CCCNCc1ccc(OCCCCCc2ccccc2)c(-c2cccs2)c1` [Compound 6, [3-({4-[(5-phenylpentyl)oxy]-3-(2-thienyl)benzyl}amino)propyl]phosphonic acid], the Lymphopenia was “induced”.

Same assay, conditions: mice, 10 mg/Kg subcutaneously, after 24 hours, FIG. 1
With `O=P(O)(O)CCCNCc1ccc(OCCCCCc2ccccc2)c(-c2cccs2)c1` [Compound 6, [3-({4-[(5-phenylpentyl)oxy]-3-(2-thienyl)benzyl}amino)propyl]phosphonic acid] the “lymphocyte count (number of lymphocytes)” value was < 1 10^3/μL blood.

Source: patent US8741875B2, “Compounds as receptor modulators with therapeutic utility” (Allergan, Inc., priority 2009, dated 2014)
